Counter-ions that a name gives are not always drawn.
Experiments:
human plasma kallikrein = human plasma kallikrein (Homo sapiens, UniProt P03952); test: Anti-plasma kallikrein activity: inhibition of S-2302 decomposition; assay type: biochemical; settings: Table 2; S-2302 substrate, pH 7.8, 37° C.; read-out: Plasma Kallikrein S-2302 (I50)
Protocol: Determination of inhibition activity for S-2302 decomposition
An inhibitor sample is dissolved in a 0.05M Tris-hydrochloric acid buffer solution (pH=7.8) to make the total volume to 400 μl. To this solution, 50 μl of a 2 mM S-2302 solution is added and the mixture is incubated at a temperature of 37° C. for 5 minutes in a constant temperature bath. Then, 50 μl of a 0.12 unit/ml human plasma kallikrein is added and the mixture is incubated at a temperature of 37° C. for 5 minutes. Thereafter, 50 μl of 50% acetic acid is added to terminate the reaction. The absorbance of the p-nitroaniline formed in the reaction mixture is measured at 405 nm. Thus, the concentration I50 (μmol) of the inhibitor sample, at which the absorbance is one half (i.e., 1/2) of that obtained in the absence of the inhibitor sample, is determined.

human plasmin [1] = molecular target: T1, human plasmin (Homo sapiens, UniProt P00747); test: Antiplasmin activity: inhibition of fibrin decomposition; assay type: biochemical; settings: Table 2; concentration at which fibrin dissolution time is extended twice, pH 7.4, 37° C.; read-out: Plasmin Fibrin (I50)
T1 sequence (P00747 581-810 limits assumed): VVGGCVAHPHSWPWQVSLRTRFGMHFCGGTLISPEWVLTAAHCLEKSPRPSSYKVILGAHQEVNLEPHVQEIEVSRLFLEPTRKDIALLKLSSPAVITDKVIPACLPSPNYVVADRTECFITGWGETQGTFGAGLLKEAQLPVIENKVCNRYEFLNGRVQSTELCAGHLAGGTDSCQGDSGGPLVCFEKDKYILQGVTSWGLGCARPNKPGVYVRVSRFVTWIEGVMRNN
T1 sequence (P00747 97-580 partner limits assumed): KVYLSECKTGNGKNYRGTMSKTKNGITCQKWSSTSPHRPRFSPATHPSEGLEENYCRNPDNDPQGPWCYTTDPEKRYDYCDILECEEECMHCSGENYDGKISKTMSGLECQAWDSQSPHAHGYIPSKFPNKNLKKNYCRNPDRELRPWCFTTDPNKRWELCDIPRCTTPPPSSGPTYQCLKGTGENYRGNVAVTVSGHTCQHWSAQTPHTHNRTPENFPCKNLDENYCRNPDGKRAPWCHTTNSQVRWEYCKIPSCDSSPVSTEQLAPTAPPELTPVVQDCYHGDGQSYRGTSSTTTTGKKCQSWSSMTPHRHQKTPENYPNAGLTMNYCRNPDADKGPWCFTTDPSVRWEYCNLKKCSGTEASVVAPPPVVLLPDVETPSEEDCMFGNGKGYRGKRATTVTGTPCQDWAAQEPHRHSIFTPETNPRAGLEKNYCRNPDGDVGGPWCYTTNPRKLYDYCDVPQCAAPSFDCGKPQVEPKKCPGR
In short: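 Inhibitor in 0.18 M borate–physiological saline buffer, pH 7.4, received bovine fibrinogen (0.2% solution), human plasmin (0.3 casein unit/ml solution) and bovine thrombin (50 unit/ml solution) at 37 °C. Time for the resulting fibrin clot to dissolve was recorded.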

bovine thrombin [2] = molecular target: T2, bovine thrombin (Bos taurus, UniProt P00735); test: Antithrombin activity: inhibition of S-2238 decomposition; assay type: biochemical; settings: Table 2; S-2238 substrate, pH 8.3, 37° C.; read-out: Thrombin S-2238 (I50)
In short: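 Inhibitor in 0.05 M Tris-HCl, pH 8.3, preincubated with S-2238 (0.2 mM stock) for 5 min at 37 °C. Bovine thrombin (0.2 unit/ml stock) then added, and p-nitroaniline release followed at 405 nm by initial velocity at 37 °C. I50 is the concentration halving the rate.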

bovine thrombin [3] = molecular target: T2, bovine thrombin; test: Antithrombin activity: inhibition of fibrin formation from fibrinogen; assay type: biochemical
In short: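 Inhibitor in 0.18M borate-saline buffer pH 7.4 mixed with 0.2% bovine fibrinogen and 4 unit/ml bovine thrombin (stock levels) at 37° C; clotting time measured. I50 is the inhibitor concentration doubling coagulation time versus uninhibited control.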

human urokinase = human urokinase (Homo sapiens, UniProt P00749); test: biochemical; settings: Table 2; S-2444 substrate, pH 8.8, 37° C.; read-out: Urokinase S-2444 (I50)
In short: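 Inhibitor in 0.05M Tris-HCl pH 8.8 preincubated 5 min at 37° C with S-2444 (1 mM solution added), then human urokinase (500 unit/ml solution) added for 5 min at 37° C; stopped with 50% acetic acid. p-Nitroaniline read at 405 nm; I50 is concentration halving absorbance versus no inhibitor.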

bovine trypsin = molecular target: T3, bovine trypsin (Bos taurus, UniProt P00760); test: Antitrypsin activity: inhibition of S-2238 decomposition; assay type: biochemical; settings: Table 2; S-2238 substrate, pH 8.1, 37° C.; read-out: Trypsin S-2238 (I50)
T3 sequence (P00760 24-246): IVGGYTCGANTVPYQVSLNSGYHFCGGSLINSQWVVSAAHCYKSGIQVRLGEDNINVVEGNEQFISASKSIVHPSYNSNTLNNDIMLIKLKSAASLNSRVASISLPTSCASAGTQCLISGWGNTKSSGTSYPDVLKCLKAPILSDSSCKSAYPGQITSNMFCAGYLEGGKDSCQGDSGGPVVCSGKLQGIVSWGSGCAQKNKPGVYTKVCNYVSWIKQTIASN

human plasmin [4] = molecular target: T1, human plasmin; test: biochemical; settings: read-out: Plasmin S-2251 (I50)
In short: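 Inhibitor in 0.05M Tris-HCl buffer, pH 7.4, was incubated with human plasmin added at 0.2 casein unit/ml (stock) at 37° C for 4 minutes, then stopped with 50% acetic acid. I50 (μmol) is the inhibitor concentration giving half the absorbance obtained without inhibitor.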

[5] = read-out: Thrombin Fibrinogen (I50), Table 2, concentration at which coagulation time of bovine fibrinogen is extended twice, pH 7.4, 37° C.
[6] = Table 2, 50% inhibition concentration, S-2251 substrate, pH 7.4, 37° C.

Chain of human plasma kallikrein (P03952 391-638 limits assumed): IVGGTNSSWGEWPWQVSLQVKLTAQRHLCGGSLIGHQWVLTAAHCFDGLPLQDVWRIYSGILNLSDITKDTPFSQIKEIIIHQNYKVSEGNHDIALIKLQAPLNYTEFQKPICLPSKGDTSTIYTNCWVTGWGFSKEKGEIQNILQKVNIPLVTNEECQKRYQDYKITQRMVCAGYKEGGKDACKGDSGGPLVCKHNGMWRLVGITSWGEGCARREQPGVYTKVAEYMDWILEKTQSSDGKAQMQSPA
Chain of human plasma kallikrein (P03952 20-390 partner limits assumed): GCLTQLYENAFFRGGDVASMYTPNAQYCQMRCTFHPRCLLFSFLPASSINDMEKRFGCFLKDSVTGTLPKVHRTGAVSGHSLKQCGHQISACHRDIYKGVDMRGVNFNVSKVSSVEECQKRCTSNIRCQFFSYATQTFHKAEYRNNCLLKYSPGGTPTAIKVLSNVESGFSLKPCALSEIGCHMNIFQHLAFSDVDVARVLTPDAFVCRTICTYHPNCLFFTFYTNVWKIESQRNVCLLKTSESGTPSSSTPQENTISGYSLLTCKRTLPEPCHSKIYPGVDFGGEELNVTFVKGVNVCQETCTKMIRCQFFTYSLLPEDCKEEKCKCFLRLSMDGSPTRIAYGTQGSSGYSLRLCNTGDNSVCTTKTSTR

Row | Structure (SMILES) | IC50 (human plasma kallikrein) | IC50 (human plasmin [1]) | IC50 (bovine thrombin [2]) | IC50 (bovine thrombin [3]; [5]) | IC50 (human urokinase) | IC50 (bovine trypsin) | IC50 (human plasmin [4]; [6]) | IC50 (bovine thrombin [3]) | IC50 (human plasmin [4])
1 | CC1CCCC(NC(=O)[C@H](Cc2ccc(OCc3ccccc3)cc2)NC(=O)c2ccc(CN)cc2)C1C (some centres unmarked) [compound 82] | 40 µM | 2.9 µM | > 50 µM | > 25 µM | > 400 µM | 7 µM | 8.5 µM |  | 
2 | CC(=O)c1ccc(NC(=O)[C@H](Cc2ccc(OCc3ccccc3Cl)cc2)NC(=O)[C@H]2CC[C@H](CN)CC2)cc1 [compound 83] | 0.51 µM | 0.21 µM | > 200 µM |  | 58 µM | 1.5 µM |  | > 50 µM | 0.89 µM
3 | CCOC(=O)c1ccc(COc2ccc(C[C@H](NC(=O)[C@H]3CC[C@H](CN)CC3)C(=O)Nc3ccc(C(C)=O)cc3)cc2)cc1 [compound 86] | 0.42 µM | 0.35 µM | > 100 µM |  | 23 µM | 0.97 µM |  | > 50 µM | 0.95 µM
4 | NCc1ccc(C(=O)N[C@@H](Cc2ccc(OCc3ccccc3)cc2)C(=O)NC2CCC(O)CC2)cc1 (some centres unmarked) [compound 88] | 120 µM | > 20 µM | > 200 µM |  | > 200 µM | 52 µM |  | > 20 µM | 33 µM
5 | CC1CCC(NC(=O)C(Cc2ccc(Oc3ccc([N+](=O)[O-])cc3)cc2)NC(=O)c2ccc(CN)cc2)CC1C (centres unmarked) [compound 109] | 20 µM | 0.27 µM | > 50 µM |  | > 200 µM | 0.43 µM |  | > 40 µM | 0.58 µM
6 | CC(=O)c1ccc(NC(=O)C(Cc2ccc(Oc3cc(Cl)ccc3[N+](=O)[O-])cc2)NC(=O)C2CCC(CN)CC2)cc1 (centres unmarked) [compound 123] | 0.078 µM | 0.28 µM | 95 µM |  | 26 µM | 0.71 µM |  | > 50 µM | 0.39 µM
7 | NC[C@H]1CC[C@H](C(=O)N[C@@H](Cc2ccc(OCc3ccc(Cl)c(Cl)c3)cc2)C(=O)Nc2ccncc2)CC1 [compound 127] | 0.41 µM | 0.29 µM | > 200 µM |  | 20 µM | 1.8 µM |  | > 50 µM | 1.5 µM
8 | CC(=O)c1ccc(NC(=O)[C@H](Cc2ccc([N+](=O)[O-])cc2)NC(=O)[C@H]2CC[C@H](CN)CC2)cc1 [compound 130, N-(trans-4-aminomethylcyclohexylcarbonyl)-4-nitro-L-phenylalanine 4-acetylanilide hydrochloride] | 8.3 µM | 7.1 µM | > 400 µM |  | 34 µM | 0.5 µM |  | > 400 µM | 15 µM

Continued by falling IC50 (human plasma kallikrein), values first:

Row | IC50 (human plasma kallikrein) | IC50 (human plasmin [1]) | IC50 (bovine thrombin [2]) | IC50 (bovine thrombin [3]; [5]) | IC50 (human urokinase) | IC50 (bovine trypsin) | IC50 (human plasmin [4]; [6]) | IC50 (bovine thrombin [3]) | IC50 (human plasmin [4]) | Structure (SMILES)
9 | 40 µM | 2.6 µM | > 50 µM | > 50 µM | > 200 µM | 2.5 µM | 4.2 µM |  |  | CCOC(=O)C1CCCC(NC(=O)[C@H](Cc2ccc(OCc3ccc(F)cc3)cc2)NC(=O)c2ccc(CN)cc2)C1 (some centres unmarked) [compound 105]
10 | 17 µM | 56 µM | > 200 µM |  | > 250 µM | 4.4 µM |  | > 500 µM | 170 µM | NCc1ccc(C(=O)N[C@@H](Cc2ccccc2)C(=O)Nc2cccc(C(F)(F)F)c2)cc1 [compound 131]
11 | 3.7 µM | 0.77 µM | > 50 µM |  | > 150 µM | 3 µM |  | > 50 µM | 3.4 µM | CC(=O)c1ccc(NC(=O)C(Cc2ccc(OCc3ccccc3)cc2)NC(=O)c2ccc(CN)cc2)cc1 (centres unmarked) [compound 118]
12 | 3.5 µM | 0.16 µM | > 400 µM |  | 320 µM | 1.3 µM |  | > 50 µM | 0.69 µM | CC1CCC(NC(=O)C(Cc2ccc(OCc3cccc(Cl)c3)cc2)NC(=O)C2CCC(CN)CC2)CC1C (centres unmarked) [compound 102]
13 | 1.2 µM | 0.32 µM | > 200 µM |  | 78 µM | 2.5 µM |  | > 100 µM | 1.6 µM | NCC1CCC(C(=O)NC(Cc2ccc(OCc3cccc(Cl)c3)cc2)C(=O)Nc2cccc(S(N)(=O)=O)c2)CC1 (centres unmarked) [compound 93]
14 | 0.44 µM | 0.3 µM | > 1000 µM |  | 82 µM | 1.3 µM |  | > 100 µM | 1.4 µM | NC[C@H]1CC[C@H](C(=O)N[C@@H](Cc2ccc(OCc3cccc(Cl)c3)cc2)C(=O)Nc2ccnc(Cl)c2)CC1 [compound 128]

From patent publication US4895842A, “Phenylalanine derivative and proteinase inhibitor” (Shosuke Okamoto, priority 1985, dated 1990)
